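A five-concentration, 48-hour dose response in 96-well plates underlies each endpoint, interpolated linearly between surrounding concentrations. At the GI50, growth is halved. The concentration for full growth arrest is given as TGI.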
Assays:
Test in all cases: DTP human tumour cell line panel, 48 h
HL-60(TB) leukemia = system: HL-60(TB) leukemia
NCI/ADR-RES ovarian = system: NCI/ADR-RES ovarian
MCF7 breast = system: MCF7 breast
UACC-62 melanoma = system: UACC-62 melanoma
MDA-MB-435 = system: MDA-MB-435
SF-268 CNS = system: SF-268 CNS
RPMI-8226 leukemia = system: RPMI-8226 leukemia
TK-10 renal = system: TK-10 renal
NCI-H522 lung = system: NCI-H522 lung
SK-MEL-2 melanoma = system: SK-MEL-2 melanoma

SMILES | GI50 (HL-60(TB) leukemia) [µM] | TGI (HL-60(TB) leukemia) [µM] | GI50 (NCI/ADR-RES ovarian) [µM] | TGI (NCI/ADR-RES ovarian) [µM] | GI50 (MCF7 breast) [µM] | TGI (MCF7 breast) [µM] | GI50 (UACC-62 melanoma) [µM] | TGI (UACC-62 melanoma) [µM] | GI50 (MDA-MB-435) [µM] | TGI (MDA-MB-435) [µM] | GI50 (SF-268 CNS) [µM] | TGI (SF-268 CNS) [µM] | GI50 (RPMI-8226 leukemia) [µM] | TGI (RPMI-8226 leukemia) [µM] | GI50 (TK-10 renal) [µM] | TGI (TK-10 renal) [µM] | GI50 (NCI-H522 lung) [µM] | TGI (NCI-H522 lung) [µM] | TGI (SK-MEL-2 melanoma) [µM] | GI50 (SK-MEL-2 melanoma) [µM]
CCCCCCCCCCCC[N+]1(CCCCCCCCCCCC)CCCC(C)C1 (stereo not drawn) | 0.174 | 0.666 | 4.41 | > 100 | 0.257 | 1.2 | 0.244 | 1.27 | 0.277 | 1.09 | 0.293 | 1.25 |  |  |  |  |  |  |  | 
Nc1ncnc2c1N=C(c1ccc3c(c1)OCO3)CC(c1ccc(Cl)cc1)N2 (stereo not drawn) | 5.38 | > 100 | 5.35 | 41.2 | 3.61 | 45.5 | 72.1 | > 100 | 56.3 | > 100 | 8.52 | 45.9 | 1.5 | 8.33 | 8.22 | 38.9 | 2.37 | > 100 |  | 
Cc1ccc2c(c1)CN1c3ccc(C)cc3CN2C1c1ccccc1O |  | > 100 |  |  |  |  |  | > 100 |  |  |  | > 100 |  | > 100 |  | 88.1 |  | > 100 | > 100 | 
O=C(Nc1ccc(N=C=S)cc1Cl)c1cc(Br)cc(Br)c1O |  | > 100 |  | 58 |  | > 100 |  | 35.2 |  | 71.4 |  | > 100 |  |  |  | 69.5 |  | > 100 | > 100 | 
COC(=O)/C=C(/C(=O)OC)C1(C)c2cc(C(=O)OC)c(C(=O)OC)c(N)c2C(=N)N1c1ccccc1 (stereo not drawn) |  | 32.6 |  |  |  |  |  | 41.2 |  |  |  | 41 |  | 57.6 |  | > 100 |  | 27.8 | 81.4 | 
OCc1cc2c(cn1)[nH]c1ccc(NCc3ccccc3)cc12 |  | 31.4 |  |  |  |  |  | 42.7 |  |  |  | 70.9 |  | 35.8 |  | 85.8 |  | 52 | > 100 | 
O=C(NC1C(=O)NNC1c1cccc([N+](=O)[O-])c1)c1ccccc1 (stereo not drawn) |  | > 100 |  |  |  |  |  | > 100 |  |  |  | > 100 |  | > 100 |  | > 100 |  |  | > 100 | 
O=C(Nc1cccc(-n2cc(-c3ccncc3)c(-c3cc(O)cc(Cl)c3)n2)c1)c1ccc(N2CCOCC2)c(C(F)(F)F)c1 | 0.81 | 3.04 | 4.59 | > 100 | 4.16 | > 100 | 1.72 | 9.38 | 2.05 | > 100 | 8.51 | > 100 | 0.398 | 2.31 |  |  | 0.934 | 12.1 | 13.2 | 2.34
O=C1/C(=C\c2ccccc2)CN(C(=O)CCN2CCCCC2)C/C1=C/c1ccccc1 |  | 1.17 |  |  |  | 1.86 |  | 3.08 |  | 6.37 |  | 4.51 |  | 0.244 |  | 10.9 |  | 2.31 | 4.44 | 
COC(=O)C1C(=O)O[C@@H](c2ccc3c(c2)OCO3)C1C(=O)OC (mixture of isomers) |  | > 100 |  |  |  |  |  | > 100 |  |  |  | > 100 |  | > 100 |  | > 100 |  | > 100 |  | 
NNC(=O)C(=O)N/N=C1/CCCC1C(=O)CCC(=O)Nc1ccc(Cl)cc1 (stereo not drawn) |  | > 100 |  |  |  |  |  | 24 |  |  |  | > 100 |  | > 100 |  | > 100 |  | > 100 | > 100 | 
CCOC(=O)c1nc(C)oc1C(F)(F)F |  | > 100 |  |  |  |  |  | > 100 |  |  |  | > 100 |  |  |  | > 100 |  | > 100 | > 100 | 
COc1nc2c(c(O)c(C)c(=O)n2OC2OCC(OC(C)=O)C(OC(C)=O)C2OC(C)=O)c(=O)n1C (stereo not drawn) |  |  |  |  |  |  |  | > 100 |  |  |  | > 100 |  |  |  | > 100 |  | > 100 | > 100 | 
COc1cc(CNc2nc3cc(N)cc(N)c3nc2-c2ccccc2)cc(OC)c1 | 3.84 | > 100 | 5.47 | 33.2 | 8.34 | > 100 | 5.31 | 30.7 |  |  | 5.32 | > 100 |  | 6.22 | 24.6 | 62.3 | 2.88 | 23 | 41 | 7.77
COc1ccc2sc3c(NCCCN)nc4ccccc4c3c(=O)c2c1 | 1.89 | 3.63 |  |  | 1.7 | 3.48 | 1.72 | 3.21 | 1.74 | 3.21 | 1.66 | 3.44 | 1.85 | 3.89 |  |  | 1.63 | 3.49 | 3.98 | 2
FC(F)(F)Oc1cccc(-c2cc(NCCCCCCNc3cc(-c4cccc(OC(F)(F)F)c4)nc4ccc(N5CCCC5)cc34)c3cc(N4CCCC4)ccc3n2)c1 |  |  | 2.07 | 4.5 | 1.73 | 3.49 | 1.77 | 3.16 | 1.82 | 3.27 | 1.94 | 3.9 |  |  | 1.78 | 3.37 | 2.05 | 4.76 | 3.63 | 1.96
COCC([C@@H](O)C(O)C(=O)NCC[C@@H](C)c1nc(/C=C/CC2OC3(C[C@H](O)C2C)OC(C(C[C@H](O)C(C)[C@H](O)C(C)/C=C(C)/C(C)=C/C=C/C(C)=C/C#N)OC)[C@@H](OP(=O)(O)O)C3(C)C)co1)N(C)C (stereo partly drawn) |  | 0.00207 |  | 0.00258 |  | 0.000347 |  | 0.000341 |  | 0.000336 |  | 0.000344 |  |  |  | 0.00024 |  | 0.000308 | 0.000333 | 
COc1ccc(C(=O)c2cc(OC)c(OC)c(OC)c2OC)cc1O | 2.77 | 9.82 | 1.97 | 7.09 | 3.83 | > 100 | 4.3 | > 100 |  |  | 4.19 | > 100 |  |  | 52.8 | > 100 | 2.37 | 7.44 | > 100 | 4.28
C[C@]12Cc3cn[nH]c3C(=O)C1CC[C@@H]1C2CC[C@@]2(C)C1CC[C@@H]2O (stereo partly drawn) |  | > 100 |  |  |  |  |  | > 100 |  |  |  | > 100 |  | > 100 |  | > 100 |  | > 100 | > 100 | 
